{"source": "patent US7045531B1", "about": "“Composition comprising a metal chelator and a method of treating amyloidosis by administering the metal chelator” (The General Hospital Corporation, priority 1997, dated 2006)", "key": {"Aβ1-42 [1]": {"biological_target": "T1, Aβ1-42 (Homo sapiens, UniProt P05067)", "T1 sequence (P05067 672-713 limits assumed)": "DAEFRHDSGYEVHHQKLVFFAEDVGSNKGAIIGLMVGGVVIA", "experiment": "Effect of metal chelators on H2O2 production from Aβ1-42", "format": "biochemical", "conditions": "chelator 200 μM; 1 μM Fe^3+"}, "AD": {"tested_on": "AD", "conditions": "twice daily deep intramuscular injections; cited from earlier work"}, "[2]": {"tested_on": "Cu^2+-induced Aβ1-40 or Aβ1-42 SDS-resistant polymers", "experiment": "Dissolution of in vitro generated SDS-resistant Aβ polymers", "format": "biochemical, human", "conditions": "polymers generated at pH 7.4"}, "Aβ1-40": {"biological_target": "Aβ1-40 (Homo sapiens, UniProt P05067)", "sequence (P05067 672-711 limits assumed)": "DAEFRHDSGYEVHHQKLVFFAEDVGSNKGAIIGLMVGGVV", "conditions": "pH 7.4; EDTA chelation"}, "Aβ1-42 [3]": {"biological_target": "T1, Aβ1-42", "experiment": "Modulation of SDS-resistant polymerization of Aβ1-42", "format": "biochemical", "conditions": "TCEP 100 μM; with and without Cu^2+; over 3 days", "protocol": "Solution concentrations of metal ion and H2O2 were 30 μM and 100 μM, respectively. […] Argon was continuously bubbled through the buffer for 2 h (at 20° C.) before the remainder of the incubation components were added.\nIt is possible that the decreased polymerization may be due to chelation of Cu^2+ by BC, however given the low binding affinity of BC for Cu^2+ compared with Aβ, it seems likely that the chelation of […] by BC prevents it from inducing SDS-resistant Aβ polymerization. Therefore, Aβ may undergo a hydroxyl radical modification that promotes its assembly into SDS-resistant polymers."}, "[4]": {"experiment": "Aβ metal-capture ELISA, competition analysis of binding to Cu^2+", "conditions": "pH 7.4; read-out: Kd, high affinity saturable Cu^2+ binding site", "protocol": "Aβ1-40 (1.5 ng/well) was incubated (37° C., 2 hr) in the wells of Cu^2+ coated microtiter plates (Xenopore, Hawthorne, N.J.) with increasing concentrations of Cu^2+ (1–100 nM) as described by Moir et al., Journal of Biological Chemistry (submitted). Remaining ligand binding sites on well surfaces were blocked with 2% gelatin in tris-buffered saline (TBS) (3 hr at 37° C.) prior to overnight incubation at room temperature with the anti-Aβ mAb 6E10 (Senetek, Maryland Heights, Mich.). Anti-mouse IgG coupled to horseradish peroxidase was then added to each well and incubated for 3 hr at 37° C. Bound antibodies were detected by a 30 minute incubation with stable peroxidase substrate buffer/3,3′,5,5′-Tetramethyl benzidine (SPSB/TMB) buffer, followed by the addition of 2 M sulfuric acid and measurement of the increase in absorbance at 450 nm.\nAll assays were performed in triplicate and are means±SD, n=3. […] The affinity of Aβ for Cu^2+ is higher than that for Zn^2+ (Bush, A. I., et al., J. Biol. Chem. 269: 12152 (1994)). […] This is supported by the fact that there is both a pH sensitive and insensitive interaction with different metal ions."}, "[5]": {"experiment": "SDS-resistant polymerization of Aβ peptides with Cu^2+ (Western blot, image analysis)", "format": "biochemical", "conditions": "after 5 d; for conversion of the monomer to dimer / conversion of the monomer to trimer: Cu^2+ 30 μM", "protocol": "Following incubation (37° C.), aliquots of each reaction (2 ng peptide) were collected at 0 d, 1 d, 3 d and 5 d and western blotted using anti-Aβ monoclonal antibody 8E10 (FIG. 9). Migration of the molecular size markers are indicated (kDa). […] It should be noted that other means of visualizing and/or determining the presence or absence of polymerization other than western blot analysis may be used. Such other means include but are not limited to density sedimentation by centrifugation of the samples.\nAs above, electronic images captured using the Fluoro-S Image Analysis System (Bio-Rad, Hercules, Calif.) were analyzed using Multi-Analyst Software (Bio-Rad, Hercules, Calif.).\n(0–30 μM) at pH 7.4 and 6.6 and the samples analyzed by Western blot and the signal quantitated using the Fluoro-S Image Analysis System (Bio-Rad, Hercules, Calif.) as previously described."}, "[6]": {"experiment": "Metal reduction assay, Cu^2+ (BC indicator)", "format": "biochemical", "conditions": "Cu^2+ 10 μM; PBS pH 7.4; 1 hr, 37° C.", "protocol": "(§1) Polypeptides (10 μM) or Vitamin C (100 μM), metal ions (10 μM, Fe(NO3)3 or Cu(NO3)2), and reduced metal ion indicators, bathophenanthrolinedisulfonic acid (BP, for Fe^2+, Sigma, 200 μM) or bathocuproinedisulfonic acid (BC, for Cu^+, Sigma, […]), were coincubated in phosphate buffered saline (PBS), pH 7.4, for 1 hr at 37° C. The metal ion solutions were prepared by direct dilution in the buffer from their aqueous stocks purchased from National Institute of Standards and Technology (NIST). Absorbances were then measured at 536 nm (Fe^2+-BP complex) and 483 nm (Cu^+-BC complex), respectively, using a 96-well plate reader (SPECTRAmax 250, Molecular Devices, Calif.). In control samples, both metal ion and indicator were present to determine the background buffer signal. As a further control, both metal ion and peptide were present in the absence of indicator to estimate the contribution of light scattering due to turbidity to the absorbance reading at these wavelengths. The net absorbances (ΔA) at 536 nm or 483 nm were obtained by deducting the absorbances from these controls from the absorbances generated by the peptide and metal in the presence of the respective indicator."}, "[7]": {"experiment": "Metal reduction assay, Fe^3+ (BP indicator)", "format": "biochemical", "conditions": "Fe^3+ 10 μM; PBS pH 7.4; 1 hr, 37° C.", "protocol": "as §1, with “The metal reduction assay was performed using a 96-well microtiter plate (Costar) based upon a modification of established protocols (Landers, J. W., et al., Amer. Clin. Path. 29:590 (1958); Landers. J. W. et al., Clinica Chimica Acta 3:329 (1958)). Polypeptides” for “Polypeptides”\nThe concentrations of reduced metal ions (Fe^2+ or Cu^+) were quantified based on the formula: Fe^2+ or Cu^+ (˜M)=A*10^6/(L*M), where L is the measured equivalent vertical pathlength for a well of 300 μL volume as described in the instrument's specifications manual (0.856 cm for Fe^2+; 1.049 cm for Cu^+); M is the known molecular absorbance (M^−1 cm^−1) which is 7124 (for Fe^2+-BP complex) or 2762 (for Cu^+-BC complex)."}, "[8]": {"conditions": "cited from earlier work; for pKd: physiological pH"}, "[9]": {"experiment": "TBARS assay of OH. production by peptides", "format": "biochemical", "conditions": "1 μM Fe^3+ or Cu^2+", "protocol": "The Thiobarbituric Acid-Reactive Substance (TBARS) assay for incubation mixtures with Fe^3+ or Cu^2+ was performed in a 96-well microtiter format modified from established protocols (Gutteridge et al. Biochim. Biophys. Acta 759: 38–41 (1983)). Aβ peptide species (10 μM) or Vitamin C (100 μM), were incubated with Fe^3+ or Cu^2+ (1 μM) and deoxyribose (7.5 mM, Sigma) in PBS, pH 7.4. Following incubation (37° C., 1 hour), glacial (17 M) acetic acid and 2-thiobarburic acid (1%, w/v in 0.05 M NaOH, Sigma) were added and heated (100° C., 10 min). The final mixtures were placed on ice for 1–3 minutes before absorbances at 532 nm were measured. The net absorbance change for each sample were obtained by deducting the absorbance from a control sample consisting of identical chemical components except for the Vitamin C or Aβ peptides."}, "[10]": {"experiment": "Cu^+ generation / metal reduction (Example 2)", "format": "biochemical", "conditions": "10 μM in PBS; Cu^2+ 10 μM; 30 minutes, 37° C.", "protocol": "This method is modified from a protocol assaying serum copper and iron (Landers, J. W., et al., Amer. J. Clin. Path. 29:590 (1958)). It is based on the fact that there are optimal visible absorption wavelengths of 483 nm and 535 nm for Cu^+ complexed with bathocuproinedisulfonic (BC) anion and Fe^2+ coordinated by bathophenanthrolinedisulfonic (BP) anion, respectively.\nAβ (10 μM in PBS, pH 7.4 or 6.8, as shown) was incubated for 30 minutes (37° C.) in the presence of Cu^2+ 10 μM±Zn^2+ 10 μM). Cu^+ levels (n=3, ±SD) were assayed against a standard curve."}}, "note": "pKd: −log10 of the molar value. Where two headings read alike, the source gives them in different places."}
{"molecule": "CC(=O)N(O)CCCCCNC(=O)CCC(=O)N(O)CCCCCNC(=O)CCC(=O)N(O)CCCCCN", "note": "[DFO, Desferrioxamine]", "values": [{"measurement": "effect on H2O2 formation by Aβ1-42", "setting": "Aβ1-42 [1]", "value": "no effect"}, {"measurement": "side effects", "setting": "AD", "value": "anaemia"}]}
{"molecule": "O=C(O)CN(CCN(CC(=O)O)CC(=O)O)CC(=O)O", "note": "[EDTA, ethylenediaminetetra acetic acid]", "values": [{"measurement": "effect on amount of Aβ1-40 or Aβ1-42 SDS-resistant polymers", "setting": "[2]", "value": "less effective"}, {"measurement": "reversibility of Cu^2+-induced Aβ1-40 aggregation", "setting": "Aβ1-40", "value": "reversible"}]}
{"molecule": "Cl.O=C(O)CCP(CCC(=O)O)CCC(=O)O", "note": "[TCEP, Tris(2-Carboxyethyl)-Phosphine Hydrochloride]", "values": [{"measurement": "effect on level of polymerization of Aβ1-42", "setting": "Aβ1-42 [3]", "value": "significantly reduced the level of polymerization"}]}
{"molecule": "Aβ1-40: synthetic human Aβ1-40 peptide", "values": [{"measurement": "pKd", "setting": "[4]", "value": 9.05}, {"measurement": "conversion of the monomer to dimer", "setting": "[5]; pH 6.6", "value": 29, "unit": "%"}, {"measurement": "conversion of the monomer to trimer", "setting": "[5]; pH 6.6", "value": 2, "unit": "%"}, {"measurement": "conversion of the monomer to dimer", "setting": "[5]; pH 7.4", "value": 42, "unit": "%"}, {"measurement": "conversion of the monomer to trimer", "setting": "[5]; pH 7.4", "value": 9, "unit": "%"}, {"measurement": "peptide converted to the SDS-resistant dimer", "setting": "[5]; no metal, pH 6.6, 7.4 or 9.0", "value": "Less than 4%"}, {"measurement": "available Cu^2+ reduced", "setting": "[6]", "value": 60, "unit": "%"}, {"measurement": "available Fe^3+ reduced", "setting": "[7]", "value": 12, "unit": "%"}, {"measurement": "pKd", "setting": "[8]; read-out: KD, high affinity zinc binding, 1:1 (Zn^2+:Aβ)", "value": 6.97}, {"measurement": "pKd", "setting": "[8]; read-out: KD, low affinity zinc binding, 2:1 stoichiometry", "value": 5.28}]}
{"molecule": "rat Aβ1-40: Rat/mouse Aβ1-40 with substitutions R5G, Y10F, H13R (DAEFGHDSGFEVRHQKLVFFAEDVGSNKGAIIGLMVGGVV; Amyloid-beta protein 40; UniProt P12023 672-711, looked up, fragment)", "values": [{"measurement": "available Cu^2+ reduced", "setting": "[6]", "value": "reduced no Cu^2+"}, {"measurement": "available Fe^3+ reduced", "setting": "[7]", "value": "did not significantly facilitate the reduction of Fe^3+"}, {"measurement": "OH. generation", "setting": "[9]", "value": "did not generate OH."}, {"measurement": "Cu^2+ reduction / redox reactivity", "setting": "[10]", "value": "does not manifest the redox reactivity"}, {"measurement": "KA, zinc, single binding site", "setting": "[8]", "value": 3.8, "unit": "µM"}]}
